The source of these data is patent US12583871B2, “PRMT5 inhibitors” (MERCK SHARP & DOHME LLC, priority 2019, dated 2026).

Like-named read-outs stand apart in the source and are kept apart here.

Experiment [1] deals with T1, PRMT5-MEP50 enzyme complex (Homo sapiens, UniProt O14744).
T1 construct: 1.25 nM of Full-length (FL)-PRMT5-MEP50 enzyme complex; made in house; host or cells: baculovirus-transfected Sf21 cells
The experiment in a line: PRMT5-MEP50 Enzyme Methylation Assay. The class given is biochemical. Particulars: recombinant FL-PRMT5-MEP50, biotinylated H4R3(Me1) peptide, 15 μM SAM. How it is done:
PRMT5-MEP50 Enzyme Methylation Assay
PRMT5-MEP50 biochemical assay is a direct measurement of the methylation activity of the enzyme complex on a short peptide substrate derived from the N-terminus of H4 histone. Methylation experiment was performed with recombinant PRMT5-MEP50 protein complex. The assessment of inhibitory effect of small molecules was measured by the effectiveness of the compounds to inhibit this reaction (EC50).
In this assay, the potency (EC50) of each compound was determined from a twenty-point (1:2 serial dilution; top compound concentration of 100000 nM) titration curve using the following outlined procedure. To each well of a white ProxiPlus 384 well-plate, 100 nL of compound (1% DMSO in final assay volume of 10 μL) was dispensed, followed by the addition of 8 μL of 1× assay buffer (50 mM Bicine pH 8.0, 1 mM DTT, 0.004% Tween20, 0.01% BSA) containing 1.25 nM of Full-length (FL)-PRMT5-MEP50 enzyme complex (recombinant proteins from baculovirus-transfected Sf21 cells: FL-PRMT5; MW=[…] and FL-MEP50; MW=38614) and 1 μL of 150 μM S-(5′-Adenosyl)-L-Methionine Chloride (SAM). Plates were sealed and placed in a 37° C. humidified chamber for a 60 minutes pre-incubation with compound. Subsequently, each reaction was initiated by the addition of 1 μL 1× assay buffer containing 750 nM biotinylated H4R3(Me1) peptide. The final reaction in each well of 10 μL consists of 1.0 nM PRMT5-MEP50, 75 nM biotinylated-peptide, and 15 μM SAM. Methylation reactions were allowed to proceed for 150 minutes in a sealed plate at 37° C. Reactions were immediately quenched by the addition of 1 μL of 5% formic acid. Plates were then frozen and shipped to SAMDI™ Tech Inc. to determine the percent conversion from H4R3(Me1) to H4R3(Me2). Dose-response curves were generated by plotting percent effect (% product conversion; Y-axis) vs. Log 10 compound concentrations (X-axis). EC50 values were determined by non-linear regression according to models for sigmoidal (4 parameters) dose-response curves.

The target of experiment [2] is T2, PRMT5 (symmetric dimethylation of arginine (SDMA) of PRMT5 substrates) in MCF-7 cells (Homo sapiens, UniProt O14744).
T2 construct: endogenous in cells; host or cells: MCF-7 cells
The experiment in a line: PRMT5 Cell Target Engagement (TE) Assay. The class given is cell-based. The note with it: 3 days treatment, nuclear SDMA by high content imaging. The source says: PRMT5 Cell Target Engagement (TE) Assay
The PRMT5 TE assay is a biomarker assay for identifying compounds that inhibit symmetric dimethylation of arginine (SDMA) of PRMT5 substrates. The following substrates have been reported for PRMT5: histone H2A and H4 R3, Histone H3 R2, Histone H3 R8, spliceosome Sm proteins, ribosomal protein RPS10, p53, FEN1, nucleoplasmin, nucleolin, EGFR and EBNA. The assay focuses on detecting symmetrically dimethylated nuclear proteins using high content imaging technology. Detection of the expression of symmetrically dimethylated nuclear proteins is through a mixture of primary rabbit monoclonal antibodies to SDMA (CST 13222), which in turn recognized by an Alexafluor 488 dye-conjugated anti-rabbit IgG secondary antibody. The IN Cell Analyzer 2200 or Opera-Phenix measures nuclear Alexafluor 488 fluorescent dye intensity that is directly related to the level of expression of symmetrically dimethylated nuclear proteins at the single cell level. Nuclear AF488 dye intensities are compared to the mean value for DMSO treated cells (MIN) to report percent of inhibition for each compound-treated well.
In this assay, the cell potency (EC50) of each compound was determined from a ten point (1:3 serial dilution; top compound concentration of 10000 nM) titration curve using the following outlined procedure. Each well of a BD falcon collagen coated black/clear bottom 384-well plate was seeded with 4000 MCF-7 cells in 30 μl media and allowed to attach for 5 h. Media is ATCC-formulated Eagle's Minimum Essential Medium, Catalog No. 30-2003. To make the complete growth medium, the following components were added to the base medium: 0.01 mg/mL human recombinant insulin; fetal bovine serum to a final concentration of 10%. Additional 30 μl of media containing 2× compounds were added to each well. Cells were treated for 3 days in 37° C. CO2 incubator. On day 3, cells were fixed with Cytofix, permeablized with 0.4% Triton-X-100/Cytofix, and washed with D-PBS without Ca/Mg. Cells were blocked with Licor Odessey blocking reagent for 1 h at room temperature, followed by incubation with anti-SDMA (1:1000) antibody at 4° C. overnight. 1° antibody was removed, followed by three washings with DPBS without Ca/Mg and 0.05% Tween20. Hoechst (5 μg/mL), Cell Mask deep stain (1:2000) and Alexa488-conjugated goat anti-rabbit IgG (2 μg/mL) was added for 1 h at room temperature. A final washing step (three washes) was performed before sealing plate for imaging on In Cell Analyzer 2200 or Opera-Phenix. Images from analyzer were uploaded to Columbus (at WP or BOS) for image analysis. IC50 values were determined by 4 parameters robust fit of percent fluorescence units vs. (Log10) compound concentrations.

[3] abbreviates: only EC50 (4 parameters single site sigmoidal model) or first EC50 of 7 parameters biphasic model, read-out: Enzyme Methylation Assay (EC50).
Setting [4] is: second EC50 of 7 parameters biphasic model, read-out: Enzyme Methylation Assay (EC50, nM), second EC50.

T1 sequence (O14744 whole entry): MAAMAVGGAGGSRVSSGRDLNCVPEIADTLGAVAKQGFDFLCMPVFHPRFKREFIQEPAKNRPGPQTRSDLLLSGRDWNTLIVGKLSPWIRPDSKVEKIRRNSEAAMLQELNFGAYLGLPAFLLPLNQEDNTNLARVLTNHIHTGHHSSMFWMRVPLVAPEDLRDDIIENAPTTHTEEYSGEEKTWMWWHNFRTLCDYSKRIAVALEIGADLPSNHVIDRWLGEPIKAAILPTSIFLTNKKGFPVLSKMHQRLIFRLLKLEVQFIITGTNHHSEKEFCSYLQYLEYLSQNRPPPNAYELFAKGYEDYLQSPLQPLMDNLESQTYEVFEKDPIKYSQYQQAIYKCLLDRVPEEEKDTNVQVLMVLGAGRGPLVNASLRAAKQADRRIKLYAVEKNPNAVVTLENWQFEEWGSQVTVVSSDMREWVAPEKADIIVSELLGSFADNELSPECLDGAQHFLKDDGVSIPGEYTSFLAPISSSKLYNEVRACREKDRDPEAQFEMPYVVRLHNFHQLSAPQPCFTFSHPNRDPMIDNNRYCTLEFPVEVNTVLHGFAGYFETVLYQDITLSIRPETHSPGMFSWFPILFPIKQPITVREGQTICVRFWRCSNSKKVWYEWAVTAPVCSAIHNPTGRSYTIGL
T1 sequence (Q9BQA1 whole entry partner): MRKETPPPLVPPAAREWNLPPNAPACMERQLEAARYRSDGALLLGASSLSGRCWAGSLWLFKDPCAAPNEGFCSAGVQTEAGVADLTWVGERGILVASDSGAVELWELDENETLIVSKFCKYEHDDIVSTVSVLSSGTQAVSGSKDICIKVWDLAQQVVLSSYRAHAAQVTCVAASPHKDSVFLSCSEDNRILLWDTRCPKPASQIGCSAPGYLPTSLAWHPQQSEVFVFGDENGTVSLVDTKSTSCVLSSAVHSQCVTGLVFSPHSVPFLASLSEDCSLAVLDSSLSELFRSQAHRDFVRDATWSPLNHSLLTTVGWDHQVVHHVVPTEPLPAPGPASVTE
T2 sequence (O14744 whole entry): as the sequence (O14744 whole entry) above
T2 sequence (Q9BQA1 whole entry partner): as the sequence (Q9BQA1 whole entry partner) above

As a reminder, the EC50 is the concentration giving half of the maximal effect. With `CO[C@@H](C)c1cc(Br)cn2cc(C(=O)N3CC[C@]4(Cc5ccccc5CN4)[C@H](O)C3)nc12` (single isomer, unassigned) [Example 2], the EC50 in experiment [1] (setting [3]) was determined as 0.369 nM; in experiment [1] (setting [4]) it was 114 nM; in experiment [2], 2.11 nM.

As to `CO[C@H](C)c1cc(Br)cn2cc(C(=O)N3CC[C@]4(Cc5ccccc5CN4)[C@H](O)C3)nc12` (single isomer, unassigned) [Example 3], the 50% effective concentration (EC50) came out at 0.581 nM in experiment [1] (setting [3]) and 1.57 nM in experiment [2].

Take `COCc1cc(C(F)(F)F)cn2cc(C(=O)N3CC[C@]4(Cc5ccccc5CN4)[C@H](O)C3)nc12` [Example 1, ((3R,3′R)-3′-hydroxy-1,4-dihydro-1′H,2H-spiro[isoquinoline-3,4′-piperidin]-1′-yl)[8-(methoxymethyl)-6-(trifluoromethyl)imidazo[1,2-a]pyridin-2-yl]methanone]: the 50% effective concentration (EC50) is 0.525 nM in experiment [1] (setting [3]), 224 nM in experiment [1] (setting [4]) and 6.23 nM in experiment [2].

With `Cc1nc2nc(C(=O)N3CC[C@]4(Cc5ccccc5CN4)[C@H](O)C3)cn2cc1Br` [Example 4, (6-bromo-7-methylimidazo[1,2-a]pyrimidin-2-yl)[(3R,3′R)-3′-hydroxy-1,4-dihydro-1′H,2H-spiro[isoquinoline-3,4′-piperidin]-1′-yl]methanone], the EC50 in experiment [1] (setting [3]) was found to be 0.652 nM; in experiment [1] (setting [4]), 280 nM; in experiment [2], 14 nM.

As to `O=C(c1cn2cc(C3CC3)cnc2n1)N1CC[C@]2(Cc3ccccc3CN2)[C@H](O)C1` [Example 5, (6-cyclopropylimidazo[1,2-a]pyrimidin-2-yl)[(3R,3′R)-3′-hydroxy-1,4-dihydro-1′H,2H-spiro[isoquinoline-3,4′-piperidin]-1′-yl]methanone], the EC50 in experiment [1] (setting [3]) came to 0.216 nM; in experiment [1] (setting [4]), 72.4 nM; in experiment [2], 4.42 nM.
